We go through 22 compounds from US9163021B2, “Pyrrolo[3,2-c]pyridine tropomyosin-related kinase inhibitors” (Pfizer Limited, priority 2012, dated 2015).

What is called pIC50 is −log10 of the IC50, conventionally taken in molar units. The low end stands for a large IC50, the high end for a small IC50.

pIC50: −log10 of the molar value.

In the test the target is TRKA (Homo sapiens (Human), UniProt P04629). Description: Isolated TRK enzyme assay (HTRF KinEASE-TK), PV3144 TrkA enzyme assay. The test is classed as biochemical. The settings on record: arithmetic mean where more than one reading. The procedure: Isolated TRK Enzyme assays use the HTRF KinEASE-TK kit (Cisbio Cat#62TK0PEJ) with recombinant His-tagged cytoplasmic domains of each TRK receptor sourced from Invitrogen (see table below). This activity-assay measures the phosphorylation of tyrosine residues within a substrate from the HTRF kit which has been validated by Cisbio for a variety of tyrosine kinases including the TRK receptors.
Sequence of TRKA (P04629 441-796): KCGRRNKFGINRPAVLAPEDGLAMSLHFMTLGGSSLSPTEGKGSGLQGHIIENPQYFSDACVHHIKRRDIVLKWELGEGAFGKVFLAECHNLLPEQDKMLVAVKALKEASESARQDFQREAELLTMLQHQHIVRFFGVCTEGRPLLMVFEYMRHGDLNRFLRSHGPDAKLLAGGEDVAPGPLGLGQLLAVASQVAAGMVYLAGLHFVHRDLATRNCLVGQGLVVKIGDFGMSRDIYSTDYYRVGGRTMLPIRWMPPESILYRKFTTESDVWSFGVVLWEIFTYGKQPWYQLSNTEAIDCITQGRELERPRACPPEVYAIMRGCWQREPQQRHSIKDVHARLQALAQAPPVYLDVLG
0.5 mM stock solutions of test compounds are prepared and serially diluted in 100% DMSO. A standard curve using the compound of Example 135 disclosed in WO2005/116035 of 150 uM is also prepared on each test plate. High percentage effect (HPE) is defined by 150 uM (using the compound of Example 135 as disclosed in WO2005/116035) and 0% effect (ZPE) is defined by 100% DMSO. Greiner low volume black plates containing 0.2 ul of serially diluted compound, standard and HPE/ZPE are created using the Bravo nanoliter dispenser.
1× enzyme buffer is prepared from 5× Enzymatic Buffer from the Cisbio KinEASE TK kit using MilliQ water. The buffer is then supplemented with 10 mM MgCI and 2 mM DTT (both from Sigma). In the case of TRKB, the buffer is also supplemented with 125 nM Supplement Enzymatic Buffer (SEB) from the Cisbio kit.
2× FAC of enzyme and 2× FAC ATP diluted in 1× complete enzyme buffer is incubated at room temperature for 20 minutes to preactivate the enzyme. Following this preactivation step, 5 ul/well of enzyme+ATP mix is added using a Multidrop Micro to the assay plate, spotted with 0.2 ul 100% DMSO compound. This is left for 20 mins at room temperature before adding 5 ul of 2 uM TK-substrate-Biotin (from the Cisbio kit) diluted in 1× enzyme buffer (1 uM FAC) using the Multidrop Micro. The reaction is incubated at room temperature for the optimized assay reaction time (see table). The reaction is stopped by adding 10 ul/well HTRF Detection Buffer containing 0.25 uM Streptavidin-XL665 (0.125 uM FAC) and 1:200 TK Antibody-Cryptate using a Multidrop.
After the Detection Reagent addition, plates are covered and incubated at room temperature for 60 minutes. HTRF signal is read using an Envision reader, measured as a ratio of emissions at two different wavelengths, 620 nm and 665 nm. […] Test compound data are expressed as percentage inhibition defined by HPE and ZPE values for each plate. Percentage inhibition in the presence of test compound is plotted against compound concentration on a log scale to determine an IC50 from the resultant sigmoid curve.
Where more than one reading was taken, the arithmetic mean is presented.
In the case of `CC(CO)n1cc(C(=O)c2cncc(NC(=O)Cn3cc(C(F)(F)F)nn3)c2)c2cnccc21` (single isomer, unassigned) [Example 59, N-(5-{[1-(1-hydroxypropan-2-yl)-1H-pyrrolo[3,2-c]pyridin-3-yl]carbonyl}pyridin-3-yl)-2-[4-(trifluoromethyl)-1H-1,2,3-triazol-1-yl]acetamide], the pIC50 was 7.19.

Turning to `O=C(Cc1ccc(F)cn1)Nc1cc(C(=O)c2cn(C3COC3)c3ccncc23)ccn1` [Example 196, 2-(5-fluoropyridin-2-yl)-N-(4-{[1-(oxetan-3-yl)-1H-pyrrolo[3,2-c]pyridin-3-yl]carbonyl}pyridin-2-yl)acetamide], the negative logarithm of the IC50 (pIC50) is 5.89.

Turning to `Cc1nc(CC(=O)Nc2cncc(C(=O)c3cn(C(C)C)c4ccncc34)c2)c(C2CC2)o1` [Example 24, 2-(5-cyclopropyl-2-methyl-1,3-oxazol-4-yl)-N-(5-{[1-(propan-2-yl)-1H-pyrrolo[3,2-c]pyridin-3-yl]carbonyl}pyridin-3-yl)acetamide], the negative logarithm of the IC50 (pIC50) was 6.91. `CC(C)n1cc(C(=O)c2cncc(NC(=O)Cc3cccc(CC(C)(C)O)c3)c2)c2cnccc21` [Example 117, 2-(3-(2-hydroxy-2-methylpropyl)phenyl]-N-(5-{[1-(propan-2-yl)-1H-pyrrolo[3,2-c]pyridin-3-yl]carbonyl}pyridin-3-yl)acetamide] showed a negative-log IC50 (pIC50) of 7.41. As for `CC(C)n1cc(C(=O)c2ccnc(NC(=O)Cc3ccc(F)cc3)c2)c2cnccc21` [Example 186, 2(4-fluorophenyl)-N-(4-{[1-(propan-2-yl)-1H-pyrrolo[3,2-c]pyridin-3-yl]carbonyl}pyridin-2-yl)acetamide], the pIC50 was 7.88. For `Cc1cc(C(F)(F)F)nn1CC(=O)Nc1ccnc(C(=O)c2cn(C(C)C)c3ccncc23)c1` [Example 28, 2-[5-methyl-3-(trifluoromethyl)-1H-pyrazol-1-yl]-N-(2-{[1-(propan-2-yl)-1H-pyrrolo[3,2-c]pyridin-3-yl]carbonyl}pyridin-4-yl)acetamide], the pIC50 was 7.97. For the compound `CC(C)n1cc(C(=O)c2cncc(NC(=O)Cc3nc(C4CC4)oc3C3CC3)c2)c2cnccc21` [Example 20, 2-(2,5-dicyclopropyl-1,3-oxazol-4-yl)-N-(5-{[1-(propan-2-yl)-1H-pyrrolo[3,2-c]pyridin-3-yl]carbonyl}pyridin-3-yl)acetamide], the negative-log IC50 (pIC50) is 7.50.

Compound `O=C(Cc1ccc(Cl)cc1)Nc1cc(C(=O)c2cn(CCO)c3ccncc23)ccn1` [Example 146, 2-(4-chlorophenyl)-N-(4-{[1-(2-hydroxyethyl)-1H-pyrrolo[3,2-c]pyridin-3-yl]carbonyl}pyridin-2-yl)acetamide] gave a negative logarithm of the IC50 (pIC50) of 7.23. As for `CC(CO)n1cc(C(=O)c2cncc(NC(=O)Cc3ccc(Cl)cn3)c2)c2cnccc21` (single isomer, unassigned) [Example 73, 2-(5-chloropyridin-2-yl)-N-(5-{[1-(1-hydroxypropan-2-yl)-1H-pyrrolo[3,2-c]pyridin-3-yl]carbonyl}pyridin-3-yl)acetamide], the figure is 7.05; as for `CC(C)n1cc(C(=O)c2cc(NC(=O)Cn3ccc(C(F)(F)F)n3)ccn2)c2cnccc21` [Example 27, N-(2-{[1-(propan-2-yl)-1H-pyrrolo[3,2-c]pyridin-3-yl]carbonyl}pyridin-4-yl)-2[3-(trifluoromethyl)-1H-pyrazol-1-yl]acetamide], 7.05; as for `CC(CO)n1cc(C(=O)c2cncc(NC(=O)Cn3ccc(C(F)(F)F)n3)c2)c2cncc(F)c21` (single isomer, unassigned) [Example 210, N-(5-{[7-fluoro-1-(1-hydroxypropan-2-yl)-1H-pyrrolo[3,2-c]pyridin-3-yl]carbonyl}pyridin-3-yl)-2-[3-(trifluoromethyl)-1H-pyrazol-1-yl]acetamide], 7.34. Take `Cc1cc(C)n(CC(=O)Nc2cc(C(=O)c3cn(C(C)C)c4ccncc34)ccn2)n1` [Example 164, 2-(3,5-dimethyl-1H-pyrazol-1-yl)-N-(4-{[1-(propan-2-yl)-1H-pyrrolo[3,2-c]pyridin-3-yl]carbonyl}pyridin-2-yl)acetamide]: the pIC50 was 7.48. “N-(5-{[7-fluoro-1-(1-hydroxypropan-2-yl)-1H-pyrrolo[3,2-c]pyridin-3-yl]carbonyl}pyridin-3-yl)-2-[4-(trifluoromethyl)-1H-1,2,3-triazol-1-yl]acetamide [Example 214]”: the negative-log IC50 (pIC50) was 7.03. With `CC(CO)n1cc(C(=O)c2cncc(NC(=O)Cn3cc(C4CC4)nn3)c2)c2cnccc21` (single isomer, unassigned) [Example 61, 2-(4-cyclopropyl-1H-1,2,3-triazol-1-yl)-N-(5-{[1-(1-hydroxypropan-2-yl)-1H-pyrrolo[3,2-c]pyridin-3-yl]carbonyl}pyridin-3-yl)acetamide], the pIC50 is 7.18. Regarding `O=C(Cc1ccc(C(F)(F)F)cc1)Nc1cc(C(=O)c2cn(CCO)c3ccncc23)ccn1` [Example 141, N-(4-{[1-(2-hydroxyethyl)-1H-pyrrolo[3,2-c]pyridin-3-yl]carbonyl}pyridin-2-yl)-2-[4-(trifluoromethyl)phenyl]acetamide], the pIC50 was 7.69. `COCc1cn(CC(=O)Nc2cc(C(=O)c3cn(C(C)C)c4ccncc34)ccn2)nn1` [Example 176]: the pIC50 was 6.04.

In the case of `CC(C)n1cc(C(=O)c2cncc(NC(=O)Cn3cc(C4CC4)nn3)c2)c2cncc(F)c21` [Example 89, 2-(4-cyclopropyl-1H-1,2,3-triazol-1-yl)-N-(5-{[7-fluoro-1-(propan-2-yl)-1H-pyrrolo[3,2-c]pyridin-3-yl]carbonyl}pyridin-3-yl)acetamide], the pIC50 is 7.08. As for `O=C(Cc1coc(C2CC2)n1)Nc1cc(C(=O)c2cn(C3COC3)c3ccncc23)ccn1` [Example 197, 2-(2-cyclopropyl-1,3-oxazol-4-yl)-N-(4-{[1-(oxetan-3-yl)-1H-pyrrolo[3,2-c]pyridin-3-yl]carbonyl}pyridin-2-yl)acetamide], the pIC50 is 6.28.

Turning to `CC(C)n1cc(CC(=O)Nc2cncc(C(=O)c3cn(C(C)C)c4ccncc34)c2)c(C(F)(F)F)n1` [Example 50, N-(5-{[1-(propan-2-yl)-1H-pyrrolo[3,2-c]pyridin-3-yl]carbonyl}pyridin-3-yl)-2-[1-(propan-2-yl)-3-(trifluoromethyl)-1H-pyrazol-4-yl]acetamide], the negative logarithm of the IC50 (pIC50) was 6.88. Compound `Cc1oc(C2CC2)nc1CC(=O)Nc1cncc(C(=O)c2cn(C(C)C)c3ccncc23)c1` [Example 19, 2-(2-cyclopropyl-5-methyl-1,3-oxazol-4-yl)-N-(5-{[1-(propan-2-yl)-1H-pyrrolo[3,2-c]pyridin-3-yl]carbonyl}pyridin-3-yl)acetamide] gave a pIC50 of 7.58. With `CC(CO)n1cc(C(=O)c2cncc(NC(=O)Cc3ccc(C#N)cc3)c2)c2cnccc21` (single isomer, unassigned) [Example 72, 2-(4-cyanophenyl)-N-(5-{[1-(1-hydroxypropan-2-yl)-1H-pyrrolo[3,2-c]pyridin-3-yl]carbonyl}pyridin-3-yl)acetamide] the figure was 6.90; with `O=C(Cc1ccc(Cl)c(Cl)c1)Nc1cc(C(=O)c2cn(CCO)c3ccncc23)ccn1` [Example 144, 2-(3,4-dichlorophenyl)-N-(4-{[1-(2-hydroxyethyl)-1H-pyrrolo[3,2-c]pyridin-3-yl]carbonyl}pyridin-2-yl)], 7.65.
